Laboratory results as given in patent US8101386B2, “Escherichia coli strains which over-produce L-threonine and processes for the production of L-threonine by fermentation” (Archer Daniels Midland Company, priority 2000, dated 2012).

How the values were obtained:
[1] = test system: E. coli strain 6-8; assay: CPCA resistance test: growth in minimal medium E with CPCA; type: cell-based; design: unit not given here; conditions: 24 hr, 36° C.
Experimental: (§1) To test for CPCA resistance, each strain was cultivated in 20 ml of the seed medium SM (32.5 g/L glucose; 1 g/L MgSO4 7H2O; 24.36 g/L K2HPO4; 9.52 g/L KH2PO4; 5 (NH4)2SO4; 15 g/L yeast extract; pH 7.2) at 36° C. for 17 hr with shaking. The cells were harvested and washed with minimal medium E. The cell suspension was then inoculated into a sterilized tube containing 3 ml of minimal medium E and 0, 0.1, 0.5, or 1 mM CPCA. After 24 hr cultivation as 36° C. with shaking, growth was determined by measuring the optical density at 660 nm. The results are shown below in Table 1 relative to growth in the absence of CPCA.

[2] = test system: E. coli strain G909; assay: as above; type: cell-based; conditions: 24 hr, 36° C.
Experimental: as §1

[3] = test system: E. coli; conditions: G. Nass et al. 1969; cited from earlier work
[4] = molecular target: threonyl tRNA-synthetase (Escherichia coli, UniProt P0A8M3); conditions: G. Nass et al. 1969; cited from earlier work
Chain of threonyl tRNA-synthetase (P0A8M3 whole entry): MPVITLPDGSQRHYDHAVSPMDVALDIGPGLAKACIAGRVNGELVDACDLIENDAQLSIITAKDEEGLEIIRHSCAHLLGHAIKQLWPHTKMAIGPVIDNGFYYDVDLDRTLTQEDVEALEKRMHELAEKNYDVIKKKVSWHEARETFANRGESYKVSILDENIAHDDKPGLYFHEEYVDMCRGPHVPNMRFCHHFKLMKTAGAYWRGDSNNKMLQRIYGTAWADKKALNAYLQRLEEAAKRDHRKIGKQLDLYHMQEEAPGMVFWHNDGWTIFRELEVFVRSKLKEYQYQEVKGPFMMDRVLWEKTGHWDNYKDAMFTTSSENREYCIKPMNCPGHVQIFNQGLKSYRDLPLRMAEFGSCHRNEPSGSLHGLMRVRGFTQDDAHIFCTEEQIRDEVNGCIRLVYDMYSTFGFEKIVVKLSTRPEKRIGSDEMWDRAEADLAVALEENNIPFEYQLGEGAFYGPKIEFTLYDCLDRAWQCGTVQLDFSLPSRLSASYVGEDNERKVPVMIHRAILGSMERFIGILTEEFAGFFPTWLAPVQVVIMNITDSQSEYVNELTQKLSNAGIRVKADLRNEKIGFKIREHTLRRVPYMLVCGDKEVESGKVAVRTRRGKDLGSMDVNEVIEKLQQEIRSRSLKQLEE

Compound	growth (optical density at 660 nm) relative to growth in the absence of CPCA ([1]; 0.1 mM CPCA)	growth (optical density at 660 nm) relative to growth in the absence of CPCA ([1]; 0.5 mM CPCA)	growth (optical density at 660 nm) relative to growth in the absence of CPCA ([1]; 1 mM CPCA)	growth (optical density at 660 nm) relative to growth in the absence of CPCA ([2]; 0.1 mM CPCA)	growth (optical density at 660 nm) relative to growth in the absence of CPCA ([2]; 0.5 mM CPCA)	growth (optical density at 660 nm) relative to growth in the absence of CPCA ([2]; 1 mM CPCA)	effect on growth of E. coli [3]	effect on enzymatic activity of threonyl tRNA-synthetase [4]
O=C(O)C1CCCC1 [CPCA, cyclopentanecarboxylic acid]	134.5	141.0	184.5	24.2	2.9	0.9	–	–
C[C@@H]1C[C@H](C)C[C@H](C)[C@@H](O)CC(=O)O[C@H]([C@@H]2CCC[C@H]2C(=O)O)C/C=C/C=C(/C#N)[C@H](O)[C@@H](C)C1 [borrelidin]	–	–	–	–	–	–	inhibit the growth	reduce the enzymatic activity
